Reference: patent publication US11970494B2, “6-heteroaryloxy benzimidazoles and azabenzimidazoles as JAK2 inhibitors” (Ajax Therapeutics, Inc., priority 2021, dated 2024)

What follows are molecules tested against T1, JAK2 (JH1 domain-catalytic, Y1007F,Y1008F) kinase (Homo sapiens, UniProt O60674, Y1007F/Y1008F) (assay: JAK2 Binding Assay (JAK2 JH1 Domain Binding Assay)). Conditions: not given.
T1 construct: made in house; host or cells: transiently transfected HEK293 cells
T1 sequence (O60674 849-1124 Y1007F/Y1008F limits assumed): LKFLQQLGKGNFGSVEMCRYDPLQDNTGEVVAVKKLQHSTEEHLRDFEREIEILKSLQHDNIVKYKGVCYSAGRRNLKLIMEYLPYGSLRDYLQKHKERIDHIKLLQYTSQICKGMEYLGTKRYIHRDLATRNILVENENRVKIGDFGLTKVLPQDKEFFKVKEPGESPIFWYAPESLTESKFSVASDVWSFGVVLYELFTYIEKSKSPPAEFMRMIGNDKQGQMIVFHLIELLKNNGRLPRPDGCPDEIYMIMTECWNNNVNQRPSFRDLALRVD

Row | SMILES | Kd [nM]
1 | Cn1cc(C(F)(F)F)cc(Nc2nc3ncc(Oc4ccnc(NC(=O)CF)c4)c(C#N)c3n2C)c1=O [Example I-84, N-(4-((7-cyano-1-methyl-2-((1-methyl-2-oxo-5-(trifluoromethyl)-1,2-dihydropyridin-3-yl)amino)-1H-imidazo[4,5-b]pyridin-6-yl)oxy)pyridin-2-yl)-2-fluoroacetamide] | < 10

Same assay, conditions: JAK2 JH1 domain binding, qPCR detection; read-out: JAK2 Kd

Row | SMILES | Kd [nM]
2 | CO[C@H]1CCN(C(=O)Nc2cc(Oc3cnc4nc(Nc5cc6n(n5)CCCC6(F)F)n(C)c4c3C#N)ccn2)C1 [Example I-34, (S)-N-(4-((7-cyano-2-((4,4-difluoro-4,5,6,7-tetrahydropyrazolo[1,5-a]pyridin-2-yl)amino)-1-methyl-1H-imidazo[4,5-b]pyridin-6-yl)oxy)pyridin-2-yl)-3-methoxypyrrolidine-1-carboxamide] | < 10
3 | CC(=O)Nc1cc(Oc2cnc3nc(Nc4cc5n(n4)CCN5C(C)(C)C)n(C)c3c2C#N)ccn1 [Example I-115, N-(4-((2-((1-(tert-butyl)-2,3-dihydro-1H-imidazo[1,2-b]pyrazol-6-yl)amino)-7-cyano-1-methyl-1H-imidazo[4,5-b]pyridin-6-yl)oxy)pyridin-2-yl)acetamide] | < 10
4 | COCCOC(=O)Nc1cc(Oc2cnc3nc(Nc4cc(C(F)(F)F)cn(C)c4=O)n(C)c3c2C#N)ccn1 [Example I-12, 2-methoxyethyl(4-((7-cyano-1-methyl-2-((1-methyl-2-oxo-5-(trifluoromethyl)-1,2-dihydropyridin-3-yl)amino)-1H-imidazo[4,5-b]pyridin-6-yl)oxy)pyridin-2-yl)carbamate] | < 10
5 | CN1CCn2nc(Nc3nc4ncc(Oc5ccnc(NC(=O)O[C@@H]6CCOC6)c5)c(Cl)c4n3C)cc2C1=O [Example I-53, (R)-tetrahydrofuran-3-yl(4-((7-chloro-1-methyl-2-((5-methyl-4-oxo-4,5,6,7-tetrahydropyrazolo[1,5-a]pyrazin-2-yl)amino)-1H-imidazo[4,5-b]pyridin-6-yl)oxy)pyridin-2-yl)carbamate] | > 5000
6 | CN(C)CCOC(=O)Nc1cc(Oc2cnc3nc(Nc4cc5n(n4)CCCC5(F)F)n(C)c3c2C#N)ccn1 [Example I-38, 2-(Dimethylamino)ethyl(4-((7-cyano-2-((4,4-difluoro-4,5,6,7-tetrahydropyrazolo[1,5-a]pyridin-2-yl)amino)-1-methyl-1H-imidazo[4,5-b]pyridin-6-yl)oxy)pyridin-2-yl)carbamate] | < 10
7 | CNC(=O)Nc1cc(Oc2cnc3nc(Nc4cc5n(n4)CCOCC5(C)C)n(C)c3c2C#N)ccn1 [Example I-69, 1-(4-((7-cyano-2-((4,4-dimethyl-4,5,7,8-tetrahydropyrazolo[1,5-d][1,4]oxazepin-2-yl)amino)-1-methyl-1H-imidazo[4,5-b]pyridin-6-yl)oxy)pyridin-2-yl)-3-methylurea] | < 10
8 | CC(=O)Nc1cc(Oc2cnc3nc(Nc4cc5n(n4)CCN(C)C54CC4)n(C)c3c2C#N)ccn1 [Example I-119] | 10 to 50
9 | COCC(=O)Nc1cc(Oc2cnc3nc(Nc4cc(C(F)(F)F)n(C5CC6(CCOCC6)C5)n4)n(C)c3c2Cl)ccn1 [Example I-107, N-(4-((2-((1-(7-oxaspiro[3.5]nonan-2-yl)-5-(trifluoromethyl)-1H-pyrazol-3-yl)amino)-7-chloro-1-methyl-1H-imidazo[4,5-b]pyridin-6-yl)oxy)pyridin-2-yl)-2-methoxyacetamide] | 10 to 50
10 | Cn1c(Nc2cc3n(n2)CCCC3(F)F)nc2ncc(Oc3ccnc(NC(=O)O[C@@H]4CCOC4)c3)c(C#N)c21 [Example I-37, (R)-tetrahydrofuran-3-yl(4-((7-cyano-2-((4,4-difluoro-4,5,6,7-tetrahydropyrazolo[1,5-a]pyridin-2-yl)amino)-1-methyl-1H-imidazo[4,5-b]pyridin-6-yl)oxy)pyridin-2-yl)carbamate] | < 10
11 | CNC(=O)Nc1cc(Oc2cnc3nc(Nc4cc5n(n4)CCCC54CC4)n(C)c3c2C#N)ccn1 [Example I-64, 1-(4-((7-cyano-2-((6′,7′-dihydro-5′H-spiro[cyclopropane-1,4′-pyrazolo[1,5-a]pyridin]-2′-yl)amino)-1-methyl-1H-imidazo[4,5-b]pyridin-6-yl)oxy)pyridin-2-yl)-3-methylurea] | < 10
12 | Cn1c(Nc2cc3n(n2)CCCC3(F)F)nc2ncc(Oc3ccnc(NC(=O)N4CC[C@H](O)C4)c3)c(C#N)c21 [Example I-29, (S)-N-(4-((7-cyano-2-((4,4-difluoro-4,5,6,7-tetrahydropyrazolo[1,5-a]pyridin-2-yl)amino)-1-methyl-1H-imidazo[4,5-b]pyridin-6-yl)oxy)pyridin-2-yl)-3-hydroxypyrrolidine-1-carboxamide] | 10 to 50
13 | CN(C)C(=O)Nc1cc(Oc2cnc3nc(Nc4cc5n(n4)CCOCC5(C)C)n(C)c3c2C#N)ccn1 [Example I-67, 3-(4-((7-cyano-2-((4,4-dimethyl-4,5,7,8-tetrahydropyrazolo[1,5-d][1,4]oxazepinyl)amino)-1-methyl-1H-imidazo[4,5-b]pyridin-6-yl)oxy)pyridin-2-yl)-1,1-dimethylurea] | < 10
14 | Cn1cc(C(F)(F)F)cc(Nc2nc3ncc(Oc4ccnc(NC(=O)OCCO)c4)c(C#N)c3n2C)c1=O [Example I-20, 2-Hydroxyethyl(4-((7-cyano-1-methyl-2-((1-methyl-2-oxo-5-(trifluoromethyl)-1,2-dihydropyridin-3-yl)amino)-1H-imidazo[4,5-b]pyridin-6-yl)oxy)pyridin-2-yl)carbamate] | < 10
15 | CN1CCO[C@@H](CC(=O)Nc2cc(Oc3cnc4nc(Nc5cc(C(F)(F)F)cn(C)c5=O)n(C)c4c3C#N)ccn2)C1 (single isomer, unassigned) [Example I-90-b] | < 10
16 | CO[C@@H]1CCN(C(=O)Nc2cc(Oc3cnc4nc(Nc5cc6n(n5)CCCC6(F)F)n(C)c4c3C#N)ccn2)C1 [Example I-33] | < 10
17 | CNC(=O)Nc1cc(Oc2cnc3nc(Nc4cc5n(n4)CCCC5(F)F)n(C)c3c2C#N)ccn1 [Example I-27, 1-(4-((7-cyano-2-((4,4-difluoro-4,5,6,7-tetrahydropyrazolo[1,5-a]pyridin-2-yl)amino)-1-methyl-1H-imidazo[4,5-b]pyridin-6-yl)oxy)pyridin-2-yl)-3-methylurea] | < 10
18 | Cn1c(Nc2cc3n(n2)CCCC3(F)F)nc2ncc(Oc3ccnc(NC(=O)O[C@H]4CCOC4)c3)c(C#N)c21 [Example I-36, (S)-tetrahydrofuran-3-yl(4-((7-cyano-2-((4,4-difluoro-4,5,6,7-tetrahydropyrazolo[1,5-a]pyridin-2-yl)amino)-1-methyl-1H-imidazo[4,5-b]pyridinyl)oxy)pyridin-2-yl)carbamate] | < 10
19 | COC(=O)Nc1cc(Oc2cnc3nc(Nc4cc5n(n4)CCN(C)C5=O)n(C)c3c2C#N)ccn1 [Example I-41, Methyl(4-((7-cyano-1-methyl-2-((5-methyl-4-oxo-4,5,6,7-tetrahydropyrazolo[1,5-a]pyrazin-2-yl)amino)-1H-imidazo[4,5-b]pyridin-6-yl)oxy)pyridin-2-yl)carbamate] | 50 to 1000

Now from value to molecule:

Row | Kd [nM] | SMILES
20 | < 10 | CC(=O)Nc1cc(Oc2cnc3nc(Nc4cc(O[C@@H]5CCN(C)C5)cc(C(F)(F)F)c4)n(C)c3c2Cl)ccn1 [Example I-100, (R)-N-(4-((7-chloro-1-methyl-2-((3-((1-methylpyrrolidin-3-yl)oxy)(trifluoromethyl)phenyl)amino)-1H-imidazo[4,5-b]pyridin-6-yl)oxy)pyridin-2-yl)acetamide]
21 | < 10 | CNC(=O)Nc1cc(Oc2cnc3nc(Nc4cc(C(F)(F)F)cn(C)c4=O)n(C)c3c2C#N)ccn1 [Example I-5, 1-(4-((7-cyano-1-methyl-2-((1-methyl-2-oxo-5-(trifluoromethyl)-1,2-dihydropyridin-3-yl)amino)-1H-imidazo[4,5-b]pyridin-6-yl)oxy)pyridin-2-yl)-3-methylurea]
22 | 50 to 1000 | CC(=O)Nc1cc(Oc2cnc3nc(Nc4cc(N5CCCC5)nc(C(F)(F)F)c4)n(C)c3c2Cl)ccn1 [Example I-111, N-(4-((7-chloro-1-methyl-2-((2-(pyrrolidin-1-yl)-6-(trifluoromethyl)pyridin-4-yl)amino)-1H-imidazo[4,5-b]pyridin-6-yl)oxy)pyridin-2-yl)acetamide]
23 | < 10 | COc1c(Oc2ccnc(NC(C)=O)c2)cnc2nc(Nc3cc(C(F)(F)F)cn(CCO)c3=O)n(C)c12 [Example I-80, N-(4-((2-((1-(2-hydroxyethyl)-2-oxo-5-(trifluoromethyl)-1,2-dihydropyridin-3-yl)amino)-7-methoxy-1-methyl-1H-imidazo[4,5-b]pyridin-6-yl)oxy)pyridin-2-yl)acetamide]
24 | < 10 | COC1CN(C(=O)Nc2cc(Oc3cnc4nc(Nc5cc(C(F)(F)F)cn(C)c5=O)n(C)c4c3C#N)ccn2)C1 [Example I-9, N-(4-((7-cyano-1-methyl-2-((1-methyl-2-oxo-5-(trifluoromethyl)-1,2-dihydropyridin-3-yl)amino)-1H-imidazo[4,5-b]pyridin-6-yl)oxy)pyridin-2-yl)-3-methoxyazetidine-1-carboxamide]
25 | < 10 | CC(=O)Nc1cc(Oc2cnc3nc(Nc4ccc([C@H]5CCCN5C)c(C(F)(F)F)c4)n(C)c3c2C#N)ccn1 (single isomer, unassigned) [Example I-109-a]
26 | < 10 | CC(=O)Nc1cc(Oc2cnc3nc(Nc4cc(O[C@H]5CCN(C)C5)cc(C(F)(F)F)c4)n(C)c3c2Cl)ccn1 [Example I-99, (S)-N-(4-((7-chloro-1-methyl-2-((3-((1-methylpyrrolidin-3-yl)oxy)-5-(trifluoromethyl)phenyl)amino)-1H-imidazo[4,5-b]pyridin-6-yl)oxy)pyridin-2-yl)acetamide]
27 | < 10 | CC(=O)Nc1cc(Oc2cnc3nc(Nc4cc([C@H]5CCCN5C)cc(C(F)(F)F)c4)n(C)c3c2Cl)ccn1 (single isomer, unassigned) [Example I-102-a]
28 | < 10 | CC(=O)Nc1cc(Oc2cnc3nc(Nc4ccc([C@@H]5CCCN5C)c(C(F)(F)F)c4)n(C)c3c2C#N)ccn1 (single isomer, unassigned) [Example I-109-b]
